Test systems include 786-0; CCRF-CEM; DU-145; HCT-116; HT-29; Hs-578T; IGROV-1; KM12; M14; MCF7; MDA-MB-231; Malme-3M; OVCAR-3; SF-268; SF-295; SF-539; SK-MEL-28; SNB-19; UACC-62; SK-MEL-2.
Common to all, as to experiment: inhibition of tumour cell growth, NCI panel, 48 h

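Tested at 5 concentrations; 48 h exposure; 96-well plates; endpoints linearly interpolated, else capped at highest concentration. At the GI50, growth is halved.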 Active and inactive are the calls of the source. No stated cut-off is given here; in the data, active = GI50 up to about 1.1 µM and inactive = higher.

Take `CSc1nc(C)c(CCOC(C)=O)c(Cl)n1`: the GI50 in the assay with 786-0, in the assay with CCRF-CEM, in the assay on DU-145, in the assay with HCT-116, in the assay with HT-29 and in the assay with Hs-578T was > 100 µM (inactive) each time. Further, the GI50 with IGROV-1, in the assay on KM12, with M14, in the assay on MCF7, in the assay with MDA-MB-231 and in the assay on Malme-3M was > 100 µM (inactive) in each case. The GI50 in the assay with OVCAR-3, with SF-268, in the assay on SF-295, in the assay with SF-539, in the assay with SK-MEL-28 and with SNB-19 was > 100 µM (inactive) throughout. Also, the GI50 in the assay with UACC-62 was > 100 µM (inactive).
As for `COc1ccccc1Nc1nc(NNC(=O)Cc2ccccc2)nc(NNC(=O)c2ccncc2)n1`, the GI50 in the assay with 786-0 is > 10 µM (inactive); in the assay on CCRF-CEM, > 10 µM (inactive); in the assay with DU-145, > 10 µM (inactive); in the assay with HT-29, > 10 µM (inactive); in the assay with Hs-578T, 9.04 µM (inactive); in the assay with IGROV-1, > 10 µM (inactive). Further, the GI50 in the assay with KM12, in the assay with M14, in the assay with MCF7, with MDA-MB-231, in the assay with Malme-3M and in the assay with SF-268 was > 10 µM (inactive) in each case. The GI50 in the assay with SF-539, with SK-MEL-28 and in the assay with UACC-62 was > 10 µM (inactive) throughout.
`O=C(O)Cc1cccc2c1OC(c1ccccc1)C(Cl)(C(=O)c1ccccc1)C2=O` (stereo not given): the GI50 in the assay with 786-0 was 12.9 µM (inactive); in the assay on CCRF-CEM it was 3.21 µM (inactive); with DU-145 it was 24.4 µM (inactive); in the assay with HCT-116, 15.1 µM (inactive); with HT-29, 16.4 µM (inactive); in the assay on Hs-578T, 35 µM (inactive). In addition, the GI50 in the assay on IGROV-1 was 15.6 µM (inactive); in the assay with KM12, 18.5 µM (inactive); with MCF7 it was 6.01 µM (inactive); in the assay on MDA-MB-231, 18.7 µM (inactive); in the assay with Malme-3M, 18.2 µM (inactive); in the assay with OVCAR-3 it was 17.7 µM (inactive). The GI50 in the assay on SF-268 is 27.9 µM (inactive); in the assay on SF-295, 23 µM (inactive); in the assay on SF-539, 31.6 µM (inactive); with SK-MEL-28, 15.6 µM (inactive); in the assay with SNB-19, 40.1 µM (inactive).
As to `O=NN1CCCS1(=O)=O`, the GI50 in the assay on 786-0, in the assay on CCRF-CEM, in the assay with DU-145, in the assay on HCT-116, in the assay on HT-29 and in the assay on Hs-578T was > 100 µM (inactive) throughout. Further, the GI50 in the assay with IGROV-1, in the assay with KM12, with M14, in the assay with MCF7, in the assay on MDA-MB-231 and in the assay on Malme-3M was > 100 µM (inactive) in each case. For the same molecule, the GI50 with OVCAR-3, in the assay on SF-268, in the assay with SF-295, in the assay on SF-539, in the assay on SK-MEL-28 and with SNB-19 was > 100 µM (inactive) in each case. The GI50 with UACC-62 was > 100 µM (inactive).
Turning to `CC1CN(c2cc3c(cc2F)c(=O)c(C(=O)O)cn3-c2ccc(F)cn2)CC(C)N1` (stereo not given), the GI50 in the assay with 786-0, with CCRF-CEM, with DU-145, in the assay on HCT-116, in the assay on HT-29 and in the assay on Hs-578T was > 100 µM (inactive) each time. The GI50 in the assay on IGROV-1, in the assay with KM12, in the assay on M14, in the assay on MCF7, in the assay with MDA-MB-231 and in the assay with Malme-3M was > 100 µM (inactive) throughout. In addition, the GI50 in the assay on OVCAR-3, with SF-268, in the assay on SF-295, in the assay with SF-539, in the assay with SK-MEL-28 and with SNB-19 was > 100 µM (inactive) throughout. In addition, the GI50 in the assay on UACC-62 is > 100 µM (inactive).
On to `COc1ccc(-c2cc(O)c3cc(OC)c(OC)cc3n2)cc1OC`, for which the GI50 with 786-0 was > 100 µM (inactive); in the assay with CCRF-CEM it was > 100 µM (inactive); in the assay on DU-145, > 100 µM (inactive); with HCT-116, > 100 µM (inactive); in the assay on HT-29 it was > 100 µM (inactive); in the assay on Hs-578T, 69.8 µM (inactive). For the same molecule, the GI50 in the assay with IGROV-1, in the assay with KM12, in the assay on M14, in the assay on MCF7, in the assay with MDA-MB-231 and with Malme-3M was > 100 µM (inactive) throughout. Moreover, the GI50 with OVCAR-3, in the assay with SF-268, with SF-295, with SF-539, in the assay with SK-MEL-28 and in the assay on SNB-19 was > 100 µM (inactive) throughout. Moreover, in the assay on UACC-62, the GI50 is > 100 µM (inactive).
In the case of `COc1ccccc1/N=N/C(=N/NC(=O)c1ccc(C)cc1)c1ccc(N(CCC#N)CCC#N)cc1OC`, the GI50 in the assay on 786-0 was 31.7 µM (inactive); in the assay with CCRF-CEM it was 18.6 µM (inactive); with DU-145, 40.8 µM (inactive); in the assay on HCT-116, 25.1 µM (inactive); with HT-29 it was 33.1 µM (inactive); with Hs-578T it was 56.4 µM (inactive). For the same molecule, the GI50 in the assay with IGROV-1 is 37.6 µM (inactive); in the assay with KM12, 26.8 µM (inactive); in the assay on M14, 29.4 µM (inactive); in the assay with MCF7 it was 13.4 µM (inactive); in the assay on MDA-MB-231 it was 24.9 µM (inactive); with Malme-3M it was 38.1 µM (inactive). Besides, the GI50 in the assay with OVCAR-3 was 29 µM (inactive); in the assay on SF-268, 30.5 µM (inactive); with SF-295, 41 µM (inactive); with SK-MEL-28, 36 µM (inactive); in the assay with SK-MEL-2, 19.8 µM (inactive); in the assay with SNB-19, 30.8 µM (inactive). Besides, in the assay with UACC-62, the GI50 is 38.3 µM (inactive).
Turning to `C=C1C(=O)O[C@H]2C[C@@]3(COC(C)=O)C=COC=C(COC(=O)C(C)C)C3CC12` (stereo not given in full), the GI50 is > 100 µM (inactive) in the assay with 786-0; 24 µM (inactive) with CCRF-CEM; > 100 µM (inactive) in the assay with DU-145; 37.5 µM (inactive) in the assay with HCT-116; > 100 µM (inactive) with HT-29; > 100 µM (inactive) in the assay on Hs-578T. The GI50 is > 100 µM (inactive) in the assay with IGROV-1; > 100 µM (inactive) in the assay with KM12; 52.4 µM (inactive) with MCF7; 61.9 µM (inactive) in the assay with MDA-MB-231; > 100 µM (inactive) in the assay with Malme-3M; > 100 µM (inactive) in the assay with OVCAR-3. The GI50 was > 10 µM (inactive) with SF-268; > 100 µM (inactive) with SF-295; > 100 µM (inactive) in the assay with SF-539; > 100 µM (inactive) in the assay on SK-MEL-28; > 100 µM (inactive) in the assay on SNB-19; 13.2 µM (inactive) in the assay with UACC-62.
In the case of `CC(C)(O)/C1=C/C=C/CCCCCCCCCC1`, the GI50 is 30.3 µM (inactive) in the assay with CCRF-CEM; > 100 µM (inactive) in the assay with DU-145; > 100 µM (inactive) with HCT-116; > 100 µM (inactive) with HT-29; 1.19 µM (inactive) in the assay with Hs-578T; > 100 µM (inactive) in the assay on IGROV-1. Also, the GI50 with KM12, with M14, in the assay on MCF7, with MDA-MB-231, in the assay on Malme-3M and in the assay on OVCAR-3 was > 100 µM (inactive) throughout. The GI50 with SF-268 was > 100 µM (inactive); with SF-295 it was > 100 µM (inactive); in the assay on SK-MEL-28 it was > 100 µM (inactive); in the assay with SK-MEL-2, > 100 µM (inactive); in the assay on SNB-19 it was > 100 µM (inactive); in the assay on UACC-62 it was 90.2 µM (inactive).
As for `CC(=O)OC(OC(C)=O)c1ccc2ccc3cccc4ccc1c2c34`, the GI50 in the assay with 786-0 was 36.1 µM (inactive); in the assay with CCRF-CEM it was 42.6 µM (inactive); in the assay on DU-145 it was 21 µM (inactive); with HCT-116, 22.4 µM (inactive); in the assay on HT-29, 18 µM (inactive); in the assay on Hs-578T, 16.1 µM (inactive). Further, the GI50 in the assay with IGROV-1 is 21.7 µM (inactive); in the assay with KM12 it was 9.77 µM (inactive); in the assay on M14, 24.8 µM (inactive); in the assay on MCF7, 23.6 µM (inactive); with MDA-MB-231 it was 10.1 µM (inactive); with Malme-3M it was 12.3 µM (inactive). Besides, the GI50 in the assay with OVCAR-3 was 26.7 µM (inactive); in the assay on SF-268 it was 28 µM (inactive); with SF-295, 18.7 µM (inactive); in the assay with SF-539, 38.7 µM (inactive); in the assay with SNB-19 it was 19.5 µM (inactive); with UACC-62 it was 12.7 µM (inactive).
Take `COC1=CC(=O)c2c(O)ccc(O)c2C1=O`: the GI50 in the assay on 786-0 is 14.6 µM (inactive); with CCRF-CEM, 8.57 µM (inactive); in the assay with DU-145 it was 1.78 µM (inactive); with HCT-116, 4.6 µM (inactive); with HT-29, 1.72 µM (inactive); with Hs-578T, 6.4 µM (inactive). The GI50 is 18.1 µM (inactive) in the assay on IGROV-1; 6.93 µM (inactive) in the assay on KM12; 0.689 µM (active) in the assay with M14; 2.82 µM (inactive) with MCF7; 3.12 µM (inactive) in the assay on MDA-MB-231; 0.0607 µM (active) in the assay on Malme-3M. Also, the GI50 in the assay with OVCAR-3 was 2.18 µM (inactive); in the assay with SF-268, 7.26 µM (inactive); with SF-295, 2 µM (inactive); with SF-539 it was 5.19 µM (inactive); in the assay on SK-MEL-28, 1.92 µM (inactive); with SNB-19 it was 4.75 µM (inactive). Besides, the GI50 with UACC-62 is 1.92 µM (inactive).

Source of the values: ChEMBL document CHEMBL1201862, “PubChem BioAssay data set” (2004).
